In patent US20100125059A1, “1-BIARYLAZETIDINONE DERIVATIVE” (Teijin Pharma Limited, priority 2007, published 2010):
Like-named read-outs stand apart in the source and are kept apart here.

Experiments:
Caco-2 cells = experiment: Cholesterol absorption inhibition assay (in vitro), [14C] cholesterol mixed micelles; format: cell-based; details: Homo sapiens, 24 hours, read-out: cholesterol absorption inhibitory activity; for inhibition at 10 µM: concentration of 10 μM; for inhibition at 12.5 µM: concentration of 12.5 μM
Procedure: This assay measures cholesterol absorption inhibitory activity by adding mixed micelles containing [^14C] cholesterol to cells and measuring cholesterol taken in the cells as oleic acid cholesteryl ester. The assay is conducted after Caco-2 cells are seeded on multi-well plates and cultured (culture medium: DMEM containing 10% fetal bovine serum, 1% non-essential amino acids, 1% penicillin, and 1% streptomycin) for 2 weeks. To each well, the micelle solution (in an amount required to provide the following final concentrations: 600 μM of sodium oleate, 50 μM of phosphatidyl choline, 5 mM of sodium taurocholate, 2.5 μM of cholesterol, and 2.5 μM of [^14C] cholesterol) and a test compound solution (in an amount required to provide the final concentration of 0.5 to 25 μM) or a solvent as a control are added, and incubation is started at 37° C. 24 hours later, the culture medium is removed, and the lipid component is extracted with hexane/2-propanol (3:2, v/v) and applied onto thin-layer silica gel plates. After drying, each plate is eluted with a mixture of hexane, diethyl ether, and acetic acid in a ratio of 83:16:1. The plates are photoexposed on imaging plates and analyzed using BAS-2500 (FUJIFILM). The amounts of light exposure of the areas corresponding to the cholesteryl ester are calculated. Background is measured using a blank space of the plate. Inhibition rates are calculated using values obtained by subtracting the background values from both values of the control and the test sample, respectively, in accordance with the following equation. A test value is calculated as a percentage (%) with respect to the control.
In the Equation 1, A is the control group, BG is a background, and B is the test compound.
The following results were obtained from the measurement by this method on cholesterol absorption inhibitory activity of the compounds of the present invention. The following results were obtained by the evaluation using concentrations of 10 μM and/or 12.5 μM.

[1] = test system: hamsters fed a high cholesterol diet; experiment: Measurement of lipid lowering effect in hamsters fed a high cholesterol diet; format: in vivo, Male Golden Syrian hamsters; details: Mesocricetus auratus, po, 168 h, gavage once daily, 7 days
Summary of the method: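 Male Golden Syrian hamsters (6/group) on 0.5% cholesterol diet, dosed by gavage once daily in corn oil at 0.01 to 10 mg/kg; serum and liver sampled 4 h after last dose. TC, TG and LDL-C measured enzymatically; effects expressed as % suppression versus control and normal-diet groups.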

[2] = read-out: serum TG lowering effect (serum TG lowering rate)
[3] = read-out: serum TC lowering effect (suppression rate of an increase in serum TC concentration)
[4] = read-out: serum LDL-C lowering effect (suppression rate of an increase in serum LDL-C concentration)
[5] = read-out: liver TC lowering effect (suppression rate of an increase in liver TC concentration)

Row | Compound | inhibition at 10 µM (Caco-2 cells) | inhibition at 12.5 µM (Caco-2 cells) | inhibition in vivo at 0.1 mg/kg [1, 2] | other results
1 | O=C1[C@H](SCCc2ccc(F)cc2)[C@@H](c2ccc(O)cc2)N1c1ccc(-c2cccnc2)cc1 [Example 5, (3R,4R)-3-[2-(4-fluorophenyl)ethylthio]-4-(4-hydroxyphenyl)-1-[4-(pyridin-3-yl)phenyl]azetidin-2-one] | ≥ 50% | ≥ 60% | ≥ 20% | 
2 | COc1ncccc1-c1ccc(N2C(=O)[C@H](SC[C@H](O)c3ccc(F)cc3)[C@H]2c2ccc(O)cc2)cc1 [Example 6, (3R,4R)-3-[(2R)-2-(4-fluorophenyl)-2-hydroxyethylthio]-4-(4-hydroxyphenyl)-1-[4-(2-methoxypyridin-3-yl)phenyl]azetidin-2-one] |  | ≥ 60% | ≥ 20% | inhibition in vivo at 0.1 mg/kg [1, 3]: ≥ 50%
3 | COc1ccc(-c2ccc(N3C(=O)[C@H](SC[C@H](O)c4ccc(F)cc4)[C@H]3c3ccc(O)cc3)cc2)c(OC)n1 [Example 7, (3R,4R)-3-[(2R)-2-(4-fluorophenyl)-2-hydroxyethylthio]-1-[4-(2,6-dimethoxypyridin-3-yl)phenyl]-4-(4-hydroxyphenyl)azetidin-2-one] | ≥ 50% |  | ≥ 20% | 
4 | Cc1ccncc1-c1ccc(N2C(=O)[C@H](SC[C@H](O)c3ccc(F)cc3)[C@H]2c2ccc(O)cc2)cc1 [Example 8, (3R,4R)-3-[(2R)-2-(4-fluorophenyl)-2-hydroxyethylthio]-4-(4-hydroxyphenyl)-1-[4-(4-methylpyridin-3-yl)phenyl]azetidin-2-one] | ≥ 50% |  | ≥ 20% | 
5 | N#Cc1ccc(-c2ccc(N3C(=O)[C@H](SC[C@H](O)c4ccc(F)cc4)[C@H]3c3ccc(O)cc3)cc2)cn1 [Example 9, 5-(4-{(3R,4R)-3-[(2R)-2-(4-fluorophenyl)-2-hydroxyethylthio]-4-(4-hydroxyphenyl)-2-oxoazetidinyl}phenyl)pyridine-2-carbonitrile] | ≥ 50% |  | ≥ 20% | 
6 | O=C1[C@H](SC[C@H](O)c2ccc(F)cc2)[C@@H](c2ccc(O)cc2)N1c1ccc(-c2ccncc2Cl)cc1 [Example 12, (3R,4R)-3-[(2R)-2-(4-fluorophenyl)-2-hydroxyethylthio]-1-[4-(3-chloropyridin-4-yl)phenyl]-4-(4-hydroxyphenyl)azetidin-2-one] | ≥ 50% |  |  | inhibition in vivo at 0.1 mg/kg [1, 4]: ≥ 50%
7 | COc1ccc(-c2ccc(N3C(=O)[C@H](SC[C@H](O)c4ccc(F)cc4)[C@H]3c3ccc(O)cc3)cc2)cn1 [Example 14, (3R,4R)-3-[(2R)-2-(4-fluorophenyl)-2-hydroxyethylthio]-4-(4-hydroxyphenyl)-1-[4-(6-methoxypyridin-3-yl)phenyl]azetidin-2-one] | ≥ 50% |  | ≥ 20% | 
8 | O=C1[C@H](SC[C@H](O)c2ccc(F)cc2)[C@@H](c2ccc(O)cc2)N1c1ccc(-c2cccnc2Cl)cc1 [Example 15, (3R,4R)-3-[(2R)-2-(4-fluorophenyl)-2-hydroxyethylthio]-1-[4-(2-chloropyridin-3-yl)phenyl]-4-(4-hydroxyphenyl)azetidin-2-one] | ≥ 50% |  | ≥ 20% | inhibition in vivo at 0.1 mg/kg [1, 4]: ≥ 50%
9 | COc1ccncc1-c1ccc(N2C(=O)[C@H](SC[C@H](O)c3ccc(F)cc3)[C@H]2c2ccc(O)cc2)cc1 [Example 16, (3R,4R)-3-[(2R)-2-(4-fluorophenyl)-2-hydroxyethylthio]-4-(4-hydroxyphenyl)-1-[4-(4-methoxypyridin-3-yl)phenyl]azetidin-2-one] | ≥ 50% | ≥ 60% |  | inhibition in vivo at 0.01 mg/kg [1, 5]: ≥ 30%; inhibition in vivo at 0.1 mg/kg [1, 3]: ≥ 50%
10 | Cc1ccc(-c2ccc(N3C(=O)[C@H](SC[C@H](O)c4ccc(F)cc4)[C@H]3c3ccc(O)cc3)cc2)cn1 [Example 20, (3R,4R)-3-[(2R)-2-(4-fluorophenyl)-2-hydroxyethylthio]-4-(4-hydroxyphenyl)-1-[4-(6-methylpyridin-3-yl)phenyl]azetidin-2-one] | ≥ 50% | ≥ 60% |  | inhibition in vivo at 0.01 mg/kg [1, 5]: ≥ 30%; inhibition in vivo at 0.01 mg/kg [1, 4]: ≥ 30%
11 | CN(C)c1ccc(-c2ccc(N3C(=O)[C@H](SC[C@H](O)c4ccc(F)cc4)[C@H]3c3ccc(O)cc3)cc2)cn1 [Example 22, (3R,4R)-3-[(2R)-2-(4-fluorophenyl)-2-hydroxyethylthio]-1-[4-(6-dimethylaminopyridin-3-yl)phenyl]-4-(4-hydroxyphenyl)azetidin-2-one] | ≥ 50% | ≥ 60% |  | inhibition in vivo at 0.01 mg/kg [1, 5]: ≥ 30%; inhibition in vivo at 0.01 mg/kg [1, 4]: ≥ 30%; inhibition in vivo at 0.1 mg/kg [1, 4]: ≥ 50%; inhibition in vivo at 0.1 mg/kg [1, 3]: ≥ 50%
12 | COc1cc(O)ccc1[C@@H]1[C@@H](SC[C@H](O)c2ccc(F)cc2)C(=O)N1c1ccc(-c2cccnc2)cc1 [Example 24, (3R,4R)-3-[(2R)-2-(4-fluorophenyl)-2-hydroxyethylthio]-4-(4-hydroxy-2-methoxyphenyl)-1-[4-(pyridin-3-yl)phenyl]azetidin-2-one] | ≥ 50% |  |  | inhibition in vivo at 0.1 mg/kg [1, 5]: ≥ 50%; inhibition in vivo at 0.1 mg/kg [1, 3]: ≥ 50%
13 | O=C1[C@H](SC[C@H](O)c2ccc(Cl)c(Cl)c2)[C@@H](c2ccc(O)cc2)N1c1ccc(-c2cccnc2)cc1 [Example 28, (3R,4R)-3-[(2R)-2-(3,4-dichlorophenyl)-2-hydroxyethylthio]-4-(4-hydroxyphenyl)-1-[4-(pyridin-3-yl)phenyl]azetidin-2-one] | ≥ 50% |  |  | inhibition in vivo at 0.1 mg/kg [1, 5]: ≥ 50%; inhibition in vivo at 0.1 mg/kg [1, 3]: ≥ 50%
14 | O=C1[C@H](SC[C@H](O)c2ccc(C(F)(F)F)cc2)[C@@H](c2ccc(O)cc2)N1c1ccc(-c2cccnc2)cc1 [Example 43, (3R,4R)-3-{(2R)-2-hydroxy-2-[4-(trifluoromethyl)phenyl]ethylthio}-4-(4-hydroxyphenyl)-1-[4-(pyridin-3-yl)phenyl]azetidin-2-one] | ≥ 50% |  |  | 
15 | Cc1cc(N2C(=O)[C@H](SC[C@H](O)c3ccc(F)cc3)[C@H]2c2ccc(O)cc2)ccc1-c1cccnc1 [Example 47, (3R,4R)-3-[(2R)-2-(4-fluorophenyl)-2-hydroxyethylthio]-4-(4-hydroxyphenyl)-1-[3-methyl-4-(pyridin-3-yl)phenyl]azetidin-2-one] | ≥ 50% |  |  | 
16 | Cc1ncccc1-c1ccc(N2C(=O)[C@H](SC[C@H](O)c3ccc(F)cc3)[C@H]2c2ccc(O)cc2)cc1 [Example 54, (3R,4R)-3-[(2R)-2-(4-fluorophenyl)-2-hydroxyethylthio]-4-(4-hydroxyphenyl)-1-[4-(2-methylpyridin-3-yl)phenyl]azetidin-2-one] | ≥ 50% |  |  | 
17 | COc1ncccc1-c1ccc(N2C(=O)[C@H](SC[C@H](O)c3ccc(Cl)cc3)[C@H]2c2ccc(O)cc2)cc1 [Example 57, (3R,4R)-3-[(2R)-2-(4-chlorophenyl)-2-hydroxyethylthio]-4-(4-hydroxyphenyl)-1-[4-(2-methoxypyridin-3-yl)phenyl]azetidin-2-one] | ≥ 50% | ≥ 60% |  | 
18 | CN(C)c1ccc(-c2ccc(N3C(=O)[C@H](SC[C@H](O)c4ccc(Cl)cc4)[C@H]3c3ccc(O)cc3)cc2)cn1 [Example 88, (3R,4R)-3-[(2R)-2-(4-chlorophenyl)-2-hydroxyethylthio]-1-[4-(6-dimethylaminopyridin-3-yl)phenyl]-4-(4-hydroxyphenyl)azetidin-2-one] |  | ≥ 60% |  | 
19 | CC(=O)c1cncc(-c2ccc(N3C(=O)[C@H](SC[C@H](O)c4ccc(Cl)cc4)[C@H]3c3ccc(O)cc3)cc2)c1 [Example 105, (3R,4R)-3-[(2R)-2-(4-chlorophenyl)-2-hydroxyethylthio]-1-[4-(5-acetylpyridin-3-yl)phenyl]-4-(4-hydroxyphenyl)azetidin-2-one] |  | ≥ 60% |  | 
